Test results as given in patent US9394317B2, “Imidazo pyridine compounds” (Eli Lilly and Company, priority 2013, dated 2016).

Key:
[1] = target: T1, recombinant human autotaxin (Homo sapiens, UniProt Q13822); test: Inhibition of Autotaxin as Measured by Choline Release; format: biochemical; conditions: substrate LPC 16:0 30 μM, 37° C., 1 hour; arithmetic mean
T1 construct: full length human autotaxin with a C-terminal His tag transfected into 293E cells; His tag (C); made in house; host or cells: 293E cells
Protocol: The purpose of this assay is to detect autotaxin inhibition using a choline release assay.
Test compounds (10 mM stocks in 100% DMSO) are serially diluted in 100% DMSO resulting in 10 concentrations of 100× inhibitor in half area 96 well plates (Corning 3992). Each of these 10 wells in 100% DMSO is diluted 1:33.33 in assay buffer in round bottom 96 well plates (Fisher 12565502) resulting in 3× concentrations in well containing 3% DMSO. The assay buffer is 50 mM Tris pH8.0, 5 mM KCl, 1 mM CaCl2, 1 mM MgCl2, 0.01% TRITON™ X-100 (Sigma T9284) and 0.01% fatty acid free bovine serum albumin (Sigma A8806). A 20 μl aliquot of each 3× test compound is then added to black flat bottom 96 well plates (Corning 3991) in singlicate. A 20 μl aliquot per well of 3× recombinant human autotaxin (full length human autotaxin with a C-terminal His tag transfected into 293E cells and purified via nickel chelate and size exclusion chromatography) is then added to every well except for the no enzyme control wells. […] The resorufin on the plates is measured with a SpectraMax Gemini EM fluorometer at excitation-emission wavelengths of 530-590 nm using SoftMax Pro 4.8 software. IC50s are calculated using 4 parameter curve fits with the internal Lilly software OLO curve fitting tool. Results are expressed as the arithmetic mean +/− standard deviation; n=x.

[2] = target: T2, endogenous autotaxin (Homo sapiens, UniProt Q13822); test: Reduction of LPA in the Presence of Human Plasma; format: biochemical; conditions: 90% pooled human plasma, 3 hours at 37° C., total LPA by mass spec; arithmetic mean
T2 construct: The increased endogenous LPC levels are cleaved by endogenous autotaxin; tissue Lampire Biologicals; host or cells: pooled human plasma (healthy female donors, sodium heparin)
Source text: The following assay is intended to measure the reduction of LPA. This assay is a tool that can be used to identify selective autotaxin-mediated LPA inhibitor compounds when it is used to test compounds that have been identified as autotaxin inhibitors. LPA biosynthesis through autotaxin is believed to the source of LPA for LPA1 mediated neuropathic pain. Makoto Inoue, et. al, “Autotaxin, a synthetic enzyme of lysophosphatidic acid (LPA), mediates the induction of nerve-injured neuropathic pain”, Molecular Pain, 2008, 4:6. Targeted inhibition of the autotaxin mediated LPA biosynthesis is supported by the results of this assay.
Units of plasma from healthy human female donors collected in sodium heparin (Lampire Biologicals) are pooled, aliquoted and stored at −80° C. […] A 400 μl aliquot of extraction buffer (50% methanol, 49.9% acetonitrile, 0.1% acetic acid) containing LPA internal standards (50 ng/ml D5 deuterium LPA 16:0 and 50 ng/ml D5 deuterium LPA 18:0) is added to each well and the total LPA in each sample is determined by mass spec analysis. Percent reduction of LPA is calculated according to the following formula: 100−(3 hour plasma+test compound−0 hour plasma no test compound control)/(3 hour plasma no test compound control−0 hour plasma no test compound control)×100
IC50 values are calculated using 4 parameter curve fitting. […]

Structure (SMILES)	IC50 [1]	IC50 [2]
O=C(OCC1CCc2nccn2C1)N1Cc2cnc(NC3Cc4ccccc4C3)nc2C1 (single isomer, unassigned; isomer 2) [Example 3, 5,6,7,8-tetrahydroimidazo[1,2-a]pyridin-6-ylmethyl 2-(2,3-dihydro-1H-inden-2-ylamino)-5,7-dihydro-6H-pyrrolo[3,4-d]pyrimidine-6-carboxylate isomer 2]	< 1.7 nM	2.22 nM
O=C(OCC1Cn2ccnc2CO1)N1Cc2cnc(NC3Cc4ccccc4C3)nc2C1 (single isomer, unassigned; isomer 2) [Example 8, 5,6-dihydro-8H-imidazo[2,1-c][1,4]oxazin-6-ylmethyl 2-(2,3-dihydro-1H-inden-2-ylamino)-5,7-dihydro-6H-pyrrolo[3,4-d]pyrimidine-6-carboxylate isomer 2]	2.04 nM	12.9 nM
